# In ChEMBL document CHEMBL1201862, “PubChem BioAssay data set” (2004):
# Activity calls are given as the source filed them.
# Key:
# [1] = cells
# [2] = target: T1, Oxysterols receptor LXR-beta (Homo sapiens, UniProt P55055); assay type: functional, cell-based;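 further: Cell-based luminescence dose-response assay of agonist activity at LXR, run as a confirmatory counterscreen to a daf-12 agonist screen; agonist potency from rising luciferase signal of a Gal4-LXR reporter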
# T1 sequence (P55055 whole entry): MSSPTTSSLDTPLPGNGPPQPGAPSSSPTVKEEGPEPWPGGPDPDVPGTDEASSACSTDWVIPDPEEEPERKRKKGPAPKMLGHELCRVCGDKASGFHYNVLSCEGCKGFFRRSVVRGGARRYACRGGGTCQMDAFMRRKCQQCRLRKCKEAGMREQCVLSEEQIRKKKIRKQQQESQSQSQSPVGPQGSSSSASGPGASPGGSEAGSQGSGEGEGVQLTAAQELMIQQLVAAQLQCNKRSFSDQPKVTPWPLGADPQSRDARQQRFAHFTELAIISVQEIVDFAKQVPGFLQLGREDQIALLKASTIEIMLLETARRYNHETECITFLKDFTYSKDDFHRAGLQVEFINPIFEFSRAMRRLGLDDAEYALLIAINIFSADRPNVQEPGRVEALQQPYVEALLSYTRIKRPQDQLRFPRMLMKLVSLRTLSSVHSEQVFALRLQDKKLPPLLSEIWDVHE
# [3] = Luminescence-based cell-based high throughput dose response assay to identify activators of the DAF-12 from the parasite S. stercoralis (ssDAF-12).; assay type: functional
# [4] = target: T1, Oxysterols receptor LXR-beta; assay: LXR agonists, Gal4 luciferase reporter, dose response, counter-screen for ssDAF-12 agonist project, cell-based, luminescence, HEK293, S. stercoralis campaign (AID 720737); assay type: functional; details: read-out: IC50 (the source's name)
# [5] = microbe, parasite or virus in culture; assay type: functional; details: Mycobacterium tuberculosis
# [6] = target: T2, Aminopeptidase N (Plasmodium falciparum FcB1/Columbia, UniProt O96935); assay: malaria alanyl aminopeptidase activity blockers – biochemical, fluorogenic H-Leu-NHMec substrate, 1536-well (AID 1445); parameters: species or system Plasmodium falciparum 3D7, 3D7
# T2 sequence (O96935 whole entry): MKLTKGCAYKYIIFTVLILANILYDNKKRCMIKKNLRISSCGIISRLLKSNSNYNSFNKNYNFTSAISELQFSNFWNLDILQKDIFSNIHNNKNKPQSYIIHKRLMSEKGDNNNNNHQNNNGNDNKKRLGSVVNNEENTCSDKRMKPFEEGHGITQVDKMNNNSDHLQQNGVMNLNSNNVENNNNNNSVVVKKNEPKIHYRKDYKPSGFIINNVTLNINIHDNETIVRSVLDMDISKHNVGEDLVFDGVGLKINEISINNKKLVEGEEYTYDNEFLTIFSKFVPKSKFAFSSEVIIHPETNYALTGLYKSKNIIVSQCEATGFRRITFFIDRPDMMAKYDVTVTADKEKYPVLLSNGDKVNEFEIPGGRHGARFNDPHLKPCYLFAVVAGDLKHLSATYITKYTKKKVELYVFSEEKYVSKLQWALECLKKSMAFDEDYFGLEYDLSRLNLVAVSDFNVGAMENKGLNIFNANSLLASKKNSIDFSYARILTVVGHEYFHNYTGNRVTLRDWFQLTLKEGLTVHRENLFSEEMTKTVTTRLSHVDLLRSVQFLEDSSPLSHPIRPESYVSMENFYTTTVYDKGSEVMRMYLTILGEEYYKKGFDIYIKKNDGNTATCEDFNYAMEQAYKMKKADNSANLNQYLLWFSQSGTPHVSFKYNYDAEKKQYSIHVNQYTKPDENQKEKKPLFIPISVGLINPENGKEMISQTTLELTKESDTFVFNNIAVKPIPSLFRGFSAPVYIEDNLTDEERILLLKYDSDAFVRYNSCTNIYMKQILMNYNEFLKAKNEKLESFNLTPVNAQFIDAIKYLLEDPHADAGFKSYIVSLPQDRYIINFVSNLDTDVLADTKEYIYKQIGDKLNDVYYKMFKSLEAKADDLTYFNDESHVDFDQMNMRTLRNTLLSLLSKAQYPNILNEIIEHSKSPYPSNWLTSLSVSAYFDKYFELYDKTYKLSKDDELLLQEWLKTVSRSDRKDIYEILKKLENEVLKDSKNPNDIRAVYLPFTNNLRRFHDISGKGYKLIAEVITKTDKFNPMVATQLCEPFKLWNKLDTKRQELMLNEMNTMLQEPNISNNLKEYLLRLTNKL
# [7] = Vero E6 cell cytotoxicity, dose response, cytotoxicity control for non-replicating M. tuberculosis project, secondary assay (AID 492998); assay type: functional, VeroE6; details: Vero C1008
# [8] = IC50 of Artemis nuclease activity blockers – biochemical, fluorescence intensity, dose response (AID 720701); assay type: functional;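 further: Artemis endonuclease enzyme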
# [9] = cells; assay type: functional
# [10] = reduction of Shn3 3'UTR-driven luciferase in osteoblasts – cell-based, Clone20 osteoblasts, firefly luciferase, cherry-picked, dose response (AID 624132); assay type: functional;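 further: firefly luciferase luminescence from reporter carrying the Shn3 3'UTR in osteoblasts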
# [11] = non-specific 3'UTR reporter inhibition in Clone20-Shn3RL – cell-based, Renilla luciferase, cherry-picked, counter-screen for Shn3 inhibitor project, dose response (AID 624133); assay type: functional
# [12] = Shn3 3'UTR reporter signal decrease – cell-based, Clone20 osteoblasts, firefly luciferase, cherry-pick, set 2, Schnurri-3 inhibitor project, dose response (AID 720490); assay type: functional;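 further: actives lower the luminescence signal as inhibitors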
# [13] = EF1alpha-driven Renilla reporter with control 3'UTR suppression – Clone20-Shn3RL cells, dual-Glo, cherry-pick, set 2, counter-screen for Shn3 3'UTR targeting project, dose response (AID 720724); assay type: functional, cell-based; details: Dual-Go Shn3RL
# [14] = viability loss in HepG2 liver cells – cell-based, ATP luminescence, cherry-pick, set 6, cytotoxicity control, dose response (AID 1053125); assay type: functional
# [15] = cells; details: A549
# [16] = tested on: HeLa; assay: ATP-based viability loss in HeLa cells – cell-based, CellTiter-Glo luminescence, cherry-pick samples, cytotoxicity control for MITF activator project, dose response (AID 540259); assay type: functional; details: Homo sapiens
# [17] = target: T3, DNA repair and recombination protein RAD54-like (Homo sapiens, UniProt Q92698); assay: RAD54 Holliday junction migration blockers – biochemical, fluorescence, cherry-picked samples, dose series, confirmation (AID 651657); assay type: functional
# T3 sequence (Q92698 whole entry): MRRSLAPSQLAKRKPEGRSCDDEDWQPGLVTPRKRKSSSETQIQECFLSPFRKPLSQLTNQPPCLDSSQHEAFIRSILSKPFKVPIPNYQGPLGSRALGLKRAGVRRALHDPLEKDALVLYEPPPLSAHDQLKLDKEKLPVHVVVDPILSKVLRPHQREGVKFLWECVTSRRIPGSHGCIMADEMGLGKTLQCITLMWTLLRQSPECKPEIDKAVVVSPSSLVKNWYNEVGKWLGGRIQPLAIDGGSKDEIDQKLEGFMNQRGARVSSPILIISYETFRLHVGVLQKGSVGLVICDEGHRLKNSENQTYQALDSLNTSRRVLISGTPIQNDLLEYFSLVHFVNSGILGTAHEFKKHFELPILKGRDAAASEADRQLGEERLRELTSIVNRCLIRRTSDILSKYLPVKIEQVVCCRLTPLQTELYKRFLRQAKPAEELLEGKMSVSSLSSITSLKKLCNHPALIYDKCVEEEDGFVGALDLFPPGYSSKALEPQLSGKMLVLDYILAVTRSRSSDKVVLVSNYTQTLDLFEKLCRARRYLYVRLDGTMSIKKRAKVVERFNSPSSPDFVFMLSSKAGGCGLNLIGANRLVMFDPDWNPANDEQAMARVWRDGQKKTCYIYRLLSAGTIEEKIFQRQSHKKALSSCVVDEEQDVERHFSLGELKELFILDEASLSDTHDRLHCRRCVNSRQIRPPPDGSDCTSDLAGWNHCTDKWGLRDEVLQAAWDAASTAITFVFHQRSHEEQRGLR
# [18] = cells; details: HEK293
# [19] = target: E3 ubiquitin-protein ligase UHRF1 (Homo sapiens, UniProt Q96T88); assay: Counterscreen for inhibitors of 5-meCpG-binding domain protein 2 (MBD2): TRFRET-based biochemical high throughput dose response assay to identify inhibitors of binding of ubiquitin-like with PHD and ring finger domains 1 (UHRF1) to methylated oligonucleotide.
# [20] = target: RNA-editing ligase 1, mitochondrial (Trypanosoma brucei brucei, UniProt P86926); assay: inhibition of trypanosome RNA editing ligase – biochemical, fluorescence, Trypanosoma brucei, dose response (AID 1117295); assay type: functional
# [21] = OVCAR8 cell viability loss – plate reader, dry powder samples, PAX8 project, dose response (AID 743197); assay type: functional, cell-based; details: OVCAR-8
# [22] = IGROV1 cell killing – plate reader, dry powder samples, PAX8 inhibitor project, dose response (AID 743043); assay type: functional, cell-based; details: IGROV-1
# [23] = OVCAR-3 cell viability loss – plate reader, dry powder samples, PAX8 inhibitor project, dose response (AID 743044); assay type: functional, cell-based
# [24] = target: Paired box protein Pax-8 (Homo sapiens, UniProt Q06710); assay: PAX8 transcriptional activity inhibition in RMG-I – RMG-I cells, luciferase, cherry-pick, dose response (AID 687027); assay type: functional, cell-based;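 further: luciferase reporter driven by Pax8 target thyroperoxidase promoter measured by SteadyGlo luminescence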
# [25] = A2780 cell killing – plate reader, dry powder samples, cytotoxicity control, dose response (AID 743046); assay type: functional, cell-based
# [26] = target: Delta-type opioid receptor (Homo sapiens, UniProt P41143); assay: Late-stage results from the probe development effort to identify antagonists of OPRK1: fluorescence-based cell-based dose response OPRD1 counterscreen.; assay type: functional
# [27] = target: Mu-type opioid receptor (Homo sapiens, UniProt P35372); assay: Late-stage results from the probe development effort to identify antagonists of OPRK1: luminescence-based cell-based dose response OPRM1 counterscreen.; assay type: functional
# [28] = target: Vasopressin V1b receptor (Homo sapiens, UniProt P47901); assay: Late-stage results from the probe development effort to identify antagonists of arginine vasopressin receptor 1a (AVPR1a): fluorescence-based cell-based dose response AVPR1b inhibition counterscreen assay.; assay type: functional
# [29] = Late-stage results from the probe development effort to identify antagonists of arginine vasopressin receptor 1a (AVPR1a): fluorescence-based cell-based dose response AVPR1a inhibition assay.; assay type: functional
# [30] = target: Vasopressin V2 receptor (Homo sapiens, UniProt P30518); assay: Late-stage results from the probe development effort to identify antagonists of arginine vasopressin receptor 1a (AVPR1a): fluorescence-based cell-based dose response AVPR2 inhibition counterscreen assay.; assay type: functional
# [31] = Late-stage results from the probe development effort to identify antagonists of arginine vasopressin receptor 1a (AVPR1a): fluorescence-based cell-based dose response OXTR inhibition counterscreen assay.; assay type: functional
# [32] = viability loss in MITF-independent A375 cells – cell-based, CellTiter-Glo luminescence, dry powder, set 2, counter-screen for MITF inhibitor project, dose response (AID 624489); assay type: functional; details: A-375;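 further: actives are compounds lowering A375 viability meaning general cytotoxicity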
# [33] = cytotoxicity in MITF-independent A375 cells – cell-based, CellTiter-Glo luminescence, dry powder, set 4, counter-screen for MITF inhibitor project, dose response (AID 624364); assay type: functional; details: A-375;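 further: A375 melanoma cells are MITF independent so this is a counter screen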
# [34] = target: NAD-dependent protein deacylase sirtuin-5, mitochondrial (Homo sapiens, UniProt Q9NXA8); assay: blockers of sirtuin-5 peptide desuccinylation – biochemical, fluorescence imaging, cherry-pick, set 6, dose response (AID 720597)
# [35] = blockers of FN fibrillogenesis by fibroblasts – AH1F cells, Alexa488-FN fluorescence, cherry-picks, dose response (AID 1035475); assay type: functional, cell-based
# [36] = BioA aminotransferase inhibition, coupled fluorescent readout – biochemical, coupled fluorescence displacement, 20-point, dry powder, dose response (AID 743357); assay type: functional
# E3 ubiquitin-protein ligase UHRF1, sequence (Q96T88 whole entry, the tested form may be a part): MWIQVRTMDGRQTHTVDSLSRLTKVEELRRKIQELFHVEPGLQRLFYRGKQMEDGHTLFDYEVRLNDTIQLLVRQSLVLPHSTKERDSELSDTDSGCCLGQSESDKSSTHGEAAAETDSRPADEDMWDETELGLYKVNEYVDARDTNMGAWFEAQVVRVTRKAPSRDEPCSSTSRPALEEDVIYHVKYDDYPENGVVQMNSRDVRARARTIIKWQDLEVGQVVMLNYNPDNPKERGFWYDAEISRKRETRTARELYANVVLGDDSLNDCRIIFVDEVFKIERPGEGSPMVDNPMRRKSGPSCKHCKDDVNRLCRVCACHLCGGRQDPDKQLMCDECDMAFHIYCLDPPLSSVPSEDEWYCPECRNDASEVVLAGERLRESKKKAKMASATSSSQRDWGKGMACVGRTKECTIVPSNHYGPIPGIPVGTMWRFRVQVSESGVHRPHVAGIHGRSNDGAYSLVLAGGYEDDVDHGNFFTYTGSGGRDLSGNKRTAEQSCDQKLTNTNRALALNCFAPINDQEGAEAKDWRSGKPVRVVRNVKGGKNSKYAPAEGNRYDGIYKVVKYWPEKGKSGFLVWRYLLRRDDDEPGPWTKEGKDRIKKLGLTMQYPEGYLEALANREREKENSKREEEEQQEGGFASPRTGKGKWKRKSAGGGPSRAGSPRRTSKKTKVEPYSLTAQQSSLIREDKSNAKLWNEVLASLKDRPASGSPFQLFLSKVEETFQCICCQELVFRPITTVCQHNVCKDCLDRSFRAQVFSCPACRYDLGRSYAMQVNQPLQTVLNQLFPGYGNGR
# Paired box protein Pax-8, sequence (Q06710 whole entry): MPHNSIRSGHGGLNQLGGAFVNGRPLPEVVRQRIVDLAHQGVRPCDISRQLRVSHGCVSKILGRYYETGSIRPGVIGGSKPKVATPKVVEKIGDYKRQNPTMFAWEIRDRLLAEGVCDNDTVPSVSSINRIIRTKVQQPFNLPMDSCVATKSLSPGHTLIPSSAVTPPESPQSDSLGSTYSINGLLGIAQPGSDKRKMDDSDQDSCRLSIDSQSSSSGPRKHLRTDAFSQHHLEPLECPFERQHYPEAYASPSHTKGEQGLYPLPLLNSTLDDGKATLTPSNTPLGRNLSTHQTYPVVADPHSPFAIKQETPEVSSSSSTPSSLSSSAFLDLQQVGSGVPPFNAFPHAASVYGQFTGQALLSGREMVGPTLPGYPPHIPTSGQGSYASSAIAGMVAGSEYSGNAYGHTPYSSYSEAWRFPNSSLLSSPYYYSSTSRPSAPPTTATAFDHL
# RNA-editing ligase 1, mitochondrial, sequence (P86926 whole entry): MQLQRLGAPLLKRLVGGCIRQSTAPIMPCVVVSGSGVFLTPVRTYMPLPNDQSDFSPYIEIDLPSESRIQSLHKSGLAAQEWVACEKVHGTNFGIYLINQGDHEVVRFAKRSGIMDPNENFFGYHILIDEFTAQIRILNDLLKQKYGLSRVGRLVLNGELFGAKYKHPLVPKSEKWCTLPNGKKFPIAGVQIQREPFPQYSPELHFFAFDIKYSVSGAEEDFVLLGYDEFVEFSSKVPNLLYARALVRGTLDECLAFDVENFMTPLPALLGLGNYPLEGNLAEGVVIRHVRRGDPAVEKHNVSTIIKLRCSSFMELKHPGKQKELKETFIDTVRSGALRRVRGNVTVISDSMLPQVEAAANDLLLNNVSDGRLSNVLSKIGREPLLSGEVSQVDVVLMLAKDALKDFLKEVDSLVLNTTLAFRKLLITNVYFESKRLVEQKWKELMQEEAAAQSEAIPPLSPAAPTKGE
# Mu-type opioid receptor, sequence (P35372 whole entry): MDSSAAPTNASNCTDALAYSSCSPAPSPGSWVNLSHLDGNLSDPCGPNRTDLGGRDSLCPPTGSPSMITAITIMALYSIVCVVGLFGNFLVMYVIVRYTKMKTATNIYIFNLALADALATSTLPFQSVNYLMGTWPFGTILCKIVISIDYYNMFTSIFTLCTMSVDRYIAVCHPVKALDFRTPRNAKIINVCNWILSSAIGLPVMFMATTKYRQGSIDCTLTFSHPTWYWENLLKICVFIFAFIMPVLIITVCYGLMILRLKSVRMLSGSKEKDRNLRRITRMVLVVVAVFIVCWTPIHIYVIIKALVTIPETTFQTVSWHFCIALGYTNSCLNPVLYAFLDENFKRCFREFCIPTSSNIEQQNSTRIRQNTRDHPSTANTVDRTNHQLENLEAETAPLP
# Vasopressin V2 receptor, sequence (P30518 whole entry): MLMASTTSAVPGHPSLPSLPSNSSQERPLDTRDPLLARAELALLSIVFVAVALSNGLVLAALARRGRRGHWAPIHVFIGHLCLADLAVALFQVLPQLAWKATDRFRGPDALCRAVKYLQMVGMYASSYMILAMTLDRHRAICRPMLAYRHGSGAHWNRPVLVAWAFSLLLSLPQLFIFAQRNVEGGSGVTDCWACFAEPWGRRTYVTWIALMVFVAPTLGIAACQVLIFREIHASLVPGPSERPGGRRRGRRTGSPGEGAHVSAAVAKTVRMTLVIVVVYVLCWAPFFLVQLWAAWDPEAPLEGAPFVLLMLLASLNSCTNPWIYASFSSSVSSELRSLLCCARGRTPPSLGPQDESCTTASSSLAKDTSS
# NAD-dependent protein deacylase sirtuin-5, mitochondrial, sequence (Q9NXA8 whole entry): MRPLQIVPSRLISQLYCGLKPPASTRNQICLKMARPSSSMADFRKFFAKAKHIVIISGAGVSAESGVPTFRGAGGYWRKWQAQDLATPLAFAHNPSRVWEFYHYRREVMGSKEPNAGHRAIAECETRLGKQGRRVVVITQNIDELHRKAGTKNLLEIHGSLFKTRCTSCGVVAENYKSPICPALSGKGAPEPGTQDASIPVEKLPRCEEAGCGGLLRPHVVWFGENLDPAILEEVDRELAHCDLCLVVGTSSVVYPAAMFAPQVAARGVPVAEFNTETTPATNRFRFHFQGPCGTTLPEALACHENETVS
# Vasopressin V1b receptor, sequence (P47901 whole entry): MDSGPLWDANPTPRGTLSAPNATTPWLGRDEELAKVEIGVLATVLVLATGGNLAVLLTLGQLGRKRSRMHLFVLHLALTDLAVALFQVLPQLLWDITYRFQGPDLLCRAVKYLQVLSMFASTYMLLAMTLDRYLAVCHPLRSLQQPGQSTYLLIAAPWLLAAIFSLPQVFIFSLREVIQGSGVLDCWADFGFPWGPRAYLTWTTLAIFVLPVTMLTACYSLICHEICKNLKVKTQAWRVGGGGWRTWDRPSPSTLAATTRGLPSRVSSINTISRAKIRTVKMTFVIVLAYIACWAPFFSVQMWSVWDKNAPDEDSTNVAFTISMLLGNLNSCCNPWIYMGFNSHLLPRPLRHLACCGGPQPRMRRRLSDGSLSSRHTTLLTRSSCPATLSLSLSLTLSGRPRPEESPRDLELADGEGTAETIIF
# Delta-type opioid receptor, sequence (P41143 whole entry): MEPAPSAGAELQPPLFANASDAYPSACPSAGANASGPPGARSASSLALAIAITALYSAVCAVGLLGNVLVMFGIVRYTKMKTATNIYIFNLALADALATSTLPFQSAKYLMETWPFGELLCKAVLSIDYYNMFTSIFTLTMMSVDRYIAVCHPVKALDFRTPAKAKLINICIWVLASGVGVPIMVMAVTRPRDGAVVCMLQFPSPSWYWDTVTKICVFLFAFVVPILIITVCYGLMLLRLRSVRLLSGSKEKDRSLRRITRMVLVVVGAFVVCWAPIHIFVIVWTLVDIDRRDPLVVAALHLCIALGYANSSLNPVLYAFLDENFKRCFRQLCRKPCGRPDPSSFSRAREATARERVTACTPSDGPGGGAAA
smiles,measurement,setting,value
Cc1ccc(-c2cc3nc(C)cc(C)n3n2)cc1,EC50,[1],> 67.5 µM (inactive)
same,EC50,[2],> 67.5 µM (inactive)
same,IC50,[3],> 67.5 µM (inactive)
same,EC50,[4],> 67.5 µM (inactive)
Cc1cc(Cl)ccc1OCCCC(=O)NO,CC50,[5],29.4 µM (active)
same,IC50,[6],43.1 µM (active)
same,CC50,[7],18.9 µM (active)
same,IC50,[8],1.59 µM (active)
same,IC50,[9],27.9 µM (active)
CCOc1ccc(Cn2nnc(C(=O)Nc3cc(OC)cc(OC)c3)c2N)cc1,AC50,[10],5.3 µM (active)
same,AC50,[11],26.9 µM (active)
same,AC50,[12],9.37 µM (active)
same,AC50,[13],38.5 µM (active)
COc1cc2sc3cc(NCC[C@@H]4CCCN4C)ccc3c(=O)c2cc1OC,AC50,[14],17.6 µM (active)
same,AC50,[15],35.5 µM (active)
same,AC50,[16],191 µM (active)
same,AC50,[17],6.9 µM (active)
same,AC50,[18],38 µM (active)
same,IC50,[19],26.2 µM (inactive)
CCCCN(C)C(=O)c1ccc(Nc2nc(C(N)Cc3ccc(C(F)(F)F)cc3)cs2)nc1 (stereo unspecified),IC50,[20],> 96.6 µM (inactive)
C[C@@H]1CCCCO[C@@H](CN(C)Cc2ccccc2)[C@H](C)CN([C@@H](C)CO)C(=O)c2cc(NC(=O)Nc3ccc(C(F)(F)F)cc3)ccc2O1,AC50,[21],42.2 µM (active)
same,AC50,[22],47.9 µM (active)
same,AC50,[23],23.1 µM (active)
same,AC50,[24],10.8 µM (active)
same,AC50,[25],44.6 µM (active)
COC(=O)c1cc(Br)cnc1N1CCC(N[C@@H]2CCCC[C@H]2O)CC1,IC50,[26],3.36 µM (active)
same,IC50,[27],2.8 µM (active)
N#Cc1cccnc1N1CCC(C(=O)N(CC2CC2)c2ccc(Cl)cc2)CC1,IC50,[28],14 µM (inactive)
same,IC50,[29],0.067 µM (active)
same,IC50,[30],24.4 µM (inactive)
same,IC50,[31],6.8 µM (active)
O=C1C(Nc2ccccc2)=C(N2CCSCC2)C(=O)c2ccccc21,AC50,[32],69.3 µM (active)
same,AC50,[33],> 70 µM (inactive)
C[C@@H]1CN([C@@H](C)CO)C(=O)c2cc(NS(C)(=O)=O)ccc2O[C@@H](C)CCCCO[C@H]1CN(C)Cc1ccc(C(F)(F)F)cc1,AC50,[34],> 30 µM (inactive)
C[C@H]1CN([C@@H](C)CO)C(=O)c2cc(NC(=O)CCCN(C)C)ccc2O[C@@H]1CN(C)Cc1ccc(-c2ccccc2)cc1,AC50,[35],> 70 µM (inactive)
CS(=O)(=O)c1ccc(N2CCN(C(=O)c3ccc4c(c3)OCO4)CC2)cc1,AC50,[36],15.1 µM (active)
